Several values for one entry are separate records, joined by “and”; a condition that tells them apart may be missing. Equal values may be shown once.
Each molecule was assayed against SARS-CoV-2 Main Protease (SARS-CoV-2) (UniProt P0DTD1).

For `O=C(Cc1cc(Cl)cc(Nc2ccccc2Cc2ccccc2)c1)Nc1cncc2ccccc12`, which IC50 is on record?
The IC50 was 1.97 µM.

`Cc1cc(O)ncc1NC(=O)C1CCOc2ccc(Cl)cc21` (stereo not drawn) was tested. Which IC50 did it give?
The IC50 was > 99.5 µM.

For `CC(C)(C)c1cc(N(C(=O)c2cocn2)C(C(=O)NCCc2cccc(F)c2)c2cccnc2)no1` (stereo not drawn), which IC50 is on record?
Its IC50 is 51.2 µM.

`Cc1ccncc1NC(=O)Nc1cccc(Cl)c1` was tested. Which IC50 did it give?
Its IC50 is 68 µM and 61 µM.

Which IC50 does the source give for `O=C(Nc1cncc2ccccc12)C1CCNc2cc(Cl)c(Cl)cc21` (stereo not drawn) here?
The IC50 was 0.154 µM.

How did the IC50 turn out when `O=C(Cc1cc(Cl)cc(Nc2cc(Cl)c(F)c(Cl)c2)c1)Nc1cncc2ccccc12` was run?
The IC50 was 1.85 µM.

Which IC50 does the source give for `O=C(Cc1ccc(Cl)cc1)Nc1cncc2ccccc12` here?
The IC50 was 23.7 µM.

How did the IC50 turn out when `C=CC(=O)N(Cc1ccccc1Cl)C(C(=O)NC)c1cncc2ccccc12` (stereo not drawn) was run?
Its IC50 is > 99.5 µM.

`O=C(Cc1cc(Cl)cc(Nc2ccccc2Oc2ccccc2)c1)Nc1cncc2ccccc12` was tested. Which IC50 did it give?
Its IC50 is 2.19 µM.

Which IC50 does the source give for `C=CC(=O)N(c1ccc(C(C)(C)C)cc1)C(C(=O)NCC1CCCO1)c1cccnc1` (stereo not drawn) here?
The IC50 was 90.5 µM.

`N#CC1(CS(=O)(=O)N2Cc3ccc(Cl)cc3[C@@H](C(=O)Nc3cncc4ccccc34)C2)CCS(=O)(=O)CC1` (stereo in doubt) was tested. Which IC50 did it give?
The IC50 was 15.3 µM.

With `CS(=O)(=O)c1ncc(Cl)c(C(=O)Nc2ccccc2Cc2ccccc2)n1` as the molecule, how does the IC50 read?
The IC50 was 0.469 µM and 0.54 µM.

`CC(C)(C)c1ccc(N(C(=O)c2ccccc2)C(C(=O)NCCc2cccc(F)c2)c2cccnc2)cc1` (stereo not drawn) was tested. Which IC50 did it give?
The IC50 was > 99.5 µM.

How did the IC50 turn out when `CC(C)=CCC/C(C)=C/CC/C(C)=C/CC/C(C)=C/Cc1cc(O)cc2c1OC(=O)C2=C(C)C` was run?
The IC50 was > 99.5 µM.

With `COc1cc(OC)cc(-c2nc(-c3c(C)nc4sccn34)no2)c1` as the molecule, how does the IC50 read?
The IC50 was > 99.5 µM.

Which IC50 does the source give for `O=C1NC[C@H](C(=O)Nc2cncc3ccccc23)c2cc(Cl)ccc21` (stereo in doubt) here?
The IC50 was 0.185 µM.

Which IC50 does the source give for `Cn1cncc1NC(=O)Cc1cccc(Cl)c1` here?
The IC50 was 93.9 µM.

`COc1ccccc1CN(C(=O)c1cocn1)C(C(=O)NCCc1cccc(F)c1)c1cccnc1` (stereo not drawn) was tested. Which IC50 did it give?
Its IC50 is > 99.5 µM.

How did the IC50 turn out when `CC(C)C[C@H]1CN(C(=O)CCl)CCN1Cc1cccc(Cl)c1` (stereo in doubt) was run?
Its IC50 is 0.759 µM and 0.641 µM.

`O=C(c1cncc2ccccc12)N1CCN(c2cccc(Cl)c2)CC1` was tested. Which IC50 did it give?
The IC50 was 1.6 µM.

With `NC(=O)c1ccc2c(NC(=O)Cc3cccc(Cl)c3)cncc2c1` as the molecule, how does the IC50 read?
Its IC50 is 1.59 µM.

How did the IC50 turn out when `O=C(NCCc1cccc(F)c1)C(c1cccnc1)N(C(=O)c1cocn1)C1COc2ccccc2C1` (stereo not drawn) was run?
The IC50 was > 99.5 µM.

Which IC50 does the source give for `COC(C)(C)CS(=O)(=O)N1Cc2ccc(Cl)cc2C(C(=O)Nc2cncc3ccccc23)C1` (stereo not drawn) here?
Its IC50 is 0.2 µM.

`N#Cc1nccn1CCCc1cccc(Cl)c1` was tested. Which IC50 did it give?
The IC50 was > 99.5 µM.

For `Cc1ccc(NCc2nnc3n(C)c(=O)c4ccccc4n23)cc1C`, which IC50 is on record?
Its IC50 is > 99.5 µM.

`NC(=O)CN1Cc2ccc(Cl)cc2C(C(=O)Nc2cncc3ccccc23)C1` (stereo not drawn) was tested. Which IC50 did it give?
The IC50 was 0.109 µM and 0.118 µM and 0.13 µM.

With `C#CCCCC(=O)N[C@H](C(=O)N[C@H](CC(C)C)C(=O)NN(CCC(N)=O)C(=O)C1OC1C(=O)OCC)C(C)(C)C` (stereo in doubt) as the molecule, how does the IC50 read?
Its IC50 is 0.292 µM and 0.206 µM.

For `O=C(Cc1cc(Cl)cc(N2CCN(c3ccccc3O)CC2)c1)Nc1cncc2ccccc12`, which IC50 is on record?
The IC50 was 1.85 µM.

With `O=C(NCCc1cccc(F)c1)C(c1cccnc1)N(C(=O)c1cocn1)c1ccc(N2CCCS2(=O)=O)cc1` (stereo not drawn) as the molecule, how does the IC50 read?
Its IC50 is 27.8 µM.

With `CN(C1CC1)S(=O)(=O)N1Cc2ccc(Cl)cc2C(C(=O)Nc2cncc3ccccc23)C1` (stereo not drawn) as the molecule, how does the IC50 read?
Its IC50 is 0.104 µM.

`CC(C)S(=O)(=O)c1ccc(N(C(=O)c2cocn2)C(C(=O)NCCc2cccc(F)c2)c2cccnc2)cc1` (stereo not drawn) was tested. Which IC50 did it give?
Its IC50 is 66.1 µM.

With `O=C(Nc1cncc2ccccc12)C1CCOc2c(OCC3CC3)cc(Cl)cc21` (stereo not drawn) as the molecule, how does the IC50 read?
Its IC50 is > 2.49 µM.

`O=C(Cc1cc(Cl)cc(Nc2ccc3ccccc3c2O)c1)Nc1cncc2ccccc12` was tested. Which IC50 did it give?
The IC50 was 4.1 µM.

`O=C(Nc1cncc2[nH]c(=O)[nH]c12)C1CCOc2ccc(Cl)cc21` (stereo not drawn) was tested. Which IC50 did it give?
Its IC50 is 62.8 µM.

For `C=CC(=O)NCC(=O)N(Cc1ccccc1O)C[C@@H]1CCCO1` (stereo in doubt), which IC50 is on record?
Its IC50 is > 99.5 µM.

How did the IC50 turn out when `O=C(Nc1cncc2ccccc12)C1CN(C2CCNC2=O)C(=O)c2ccc(Cl)cc21` (stereo not drawn) was run?
Its IC50 is 0.717 µM.

With `CC(C)(O)c1cccc(N(C(=O)c2cocn2)C(C(=O)NCCc2cccc(F)c2)c2cccnc2)c1` (stereo not drawn) as the molecule, how does the IC50 read?
The IC50 was > 99.5 µM.

For `CC(=O)NC(C)c1cc(Cl)cc(-c2ccc(S(N)(=O)=O)cc2)c1` (stereo not drawn), which IC50 is on record?
The IC50 was > 99.5 µM.

`N#CCCN1CCN(C(=O)CC2(C(=O)Nc3cncc4ccccc34)CCOc3ccc(Cl)cc32)CC1` (stereo not drawn) was tested. Which IC50 did it give?
The IC50 was 21.3 µM.

For `CC(C)(C)c1ccc(N(C(=O)c2ccncc2)C(C(=O)NCCc2cccc(F)c2)c2cccnc2)cc1` (stereo not drawn), which IC50 is on record?
Its IC50 is > 99.5 µM.

For `O=C(Nc1cncc2ccccc12)C1(CNc2c[nH]c(=O)[nH]c2=O)CCOc2cc(Cl)ccc21` (stereo not drawn), which IC50 is on record?
The IC50 was 5.36 µM.

Which IC50 does the source give for `Cc1noc(COc2cc(Cl)cc(CC(=O)Nc3cnccc3C)c2)n1` here?
Its IC50 is 23.9 µM.

For `CNC(=O)CN1C[C@@H](C(=O)Nc2cncc3cc(Cl)ccc23)c2cc(Cl)ccc2C1=O` (stereo in doubt), which IC50 is on record?
Its IC50 is 0.939 µM.

With `N#CC1(CS(=O)(=O)N2Cc3ccc(Cl)cc3C3(CCN(c4cncc5ccc(OCCCN6CCCC6)cc45)C3=O)C2)CC1` (stereo not drawn) as the molecule, how does the IC50 read?
The IC50 was 0.128 µM.

`O=C(NCC1(C(=O)Nc2cncc3ccccc23)CCOc2ccc(Cl)cc21)C1COCCN1CC(F)(F)F` (stereo not drawn) was tested. Which IC50 did it give?
Its IC50 is 17.1 µM and 27.2 µM.

For `Cc1cn2c(CNC(=O)c3cnn4ccccc34)c(C)nc2s1`, which IC50 is on record?
Its IC50 is > 99.5 µM.

Which IC50 does the source give for `COCOc1ccc(N(C(=O)c2cocn2)C(C(=O)NCCc2cccc(F)c2)c2cccnc2)cc1` (stereo not drawn) here?
Its IC50 is 13.2 µM.

`O=C(Cc1cc(Cl)cc(Nc2c(Cl)c(F)nc(F)c2Cl)c1)Nc1cncc2ccccc12` was tested. Which IC50 did it give?
The IC50 was 2.16 µM.
